According to patent publication US20110104290A1, “COMPOSITIONS FOR REDUCING BLOOD GLUCOSE LEVEL AND USES THEREOF” (priority 2008, published 2011):

Tested on: STZ-induced hyperglycemic rats
Assay: Anti-hyperglycemic effect in STZ-induced hyperglycemic rats (serum blood glucose level)
Type: in vivo, Sprague-Dawley (SD) rats
Experimental: For the purpose of the present invention, the dietary supplement prepared in accordance with Example 1 is named Composition 1. Composition 1 is an herbal supplement used for control of blood glucose level. The purpose of this study was to assess the anti-hyperglycemic effect of Composition 1 tablet in STZ-induced hyperglycemic rats.
Sprague-Dawley (SD) rats weighing 230˜270 g were used to establish the hyperglycemic rat model. Animals were fasted for 18 hours before receiving a single intraperitoneal injection of 2% STZ at a dose of 40 mg/kg BW (2.0 ml/kg). Six SD rats were selected as the Blank Control Group and injected intraperitoneally with citric acid buffer at a dose of 2.0 ml/kg BW. All rats had free access to food and water after the injection. Blood samples were collected from rats' posterior orbits veins at 72 hours after the injection for determination of the blood glucose level. Successful establishment of hyperglycemic rat model was defined as a non-fasting venous blood glucose level≧13.8 mmol/L. […]
The clinical dose of Metformin for human is 1˜1.5 g/day, which is about 0.025 g/kg body weight/day for an adult. The administration dose of Metformin for rat was calculated to be 0.25 g/kg body weight/day, 10 times of human clinical dose. […]

CN(C)C(=N)N=C(N)N [Metformin]
blood glucose levels compared to the Model Control Group (Metformin Control Group 0.25 g/kg/day, 3rd and 4th weeks after the beginning of administration, p<0.05): lower | decrease of end-point blood glucose level compared to level prior to the treatment (Metformin Control Group, 0.25 g/kg/day i.g., after the 4-week treatment): 59%
